Here are results for 15 compounds from ChEMBL document CHEMBL5046290, “Design, Synthesis, and Preclinical Profiling of GSK3739936 (BMS-986180), an Allosteric Inhibitor of HIV-1 Integrase with Broad-Spectrum Activity toward 124/125 Polymorphs” (J Med Chem, 2022).

Data set [1] in a line: Displacement of [3H](S)-2-(tert-butoxy)-2-(2-methyl-4-(p-tolyl)quinolin-3-yl)acetic acid from LEDGF-binding site of recombinant T124/T125 polymorphic HIV1 integrase by LIDIA assay. Set-up: species or system Human immunodeficiency virus 1.
Data set [2] concerns Human immunodeficiency virus 1. Put plainly: Antiviral activity against recombinant HIV1 NLRep-Rluc harbouring polymorphic T124/T125 integrase infected in human MT-2 cells assessed as inhibition of virus growth in presence of fetal bovine serum by measuring luciferase activity after 5 days. In kind it is functional, organism-based, MT2. Particulars: Human immunodeficiency virus 1, NLRep, MT2, 120 h.

Data set [3] can be described thus: Cytotoxicity against human MT2 cells assessed as cell viability measured after 4 days by XTT assay. Format: toxicity, cell-based. The note with it: time 4 day.
Data set [4] is described as follows: Metabolic stability in rat liver microsome assessed half life at 0.5 uM by LC-MS/MS analysis. Format: ADME. Particulars: liver microsomes.
Data set [5] in a line: Metabolic stability in human liver microsome assessed half life at 0.5 uM by LC-MS/MS analysis. Format: ADME. The note with it: liver microsomes.
Data set [6] in a line: Clearance in Sprague-Dawley rat at 1 mg/kg, iv by LC-MS/MS analysis. Particulars: in vivo. Format: ADME, organism-based.
Data set [7] relates to Human immunodeficiency virus 1. Put plainly: Antiviral activity against recombinant HIV1 NLRep-Rluc harbouring polymorphic AA infected in human MT-2 cells assessed as inhibition of virus growth in presence of fetal bovine serum by measuring luciferase activity after 5 days. Format: functional, organism-based. Particulars: Human immunodeficiency virus 1, NLRep, MT2, 120 h.

In data set [8] the test system is Human immunodeficiency virus 1. Briefly: Antiviral activity against recombinant HIV1 NLRep-Rluc harbouring polymorphic AT infected in human MT-2 cells assessed as inhibition of virus growth in presence of fetal bovine serum by measuring luciferase activity after 5 days. Format: functional, organism-based. Particulars: Human immunodeficiency virus 1, NLRep, MT2, 120 h.

Data set [9] relates to Human immunodeficiency virus 1. Briefly: Antiviral activity against recombinant HIV1 NLRep-Rluc harbouring polymorphic NA infected in human MT-2 cells assessed as inhibition of virus growth in presence of fetal bovine serum by measuring luciferase activity after 5 days. In kind it is functional, organism-based. The note with it: Human immunodeficiency virus 1, NLRep, MT2, 120 h.

Data set [10] concerns Human immunodeficiency virus 1. Briefly: Antiviral activity against recombinant HIV1 NLRep-Rluc harbouring polymorphic TA infected in human MT-2 cells assessed as inhibition of virus growth in presence of fetal bovine serum by measuring luciferase activity after 5 days. Particulars: Human immunodeficiency virus 1, NLRep, MT2, 120 h. In kind it is functional, organism-based.

For data set [11], the system named is Human immunodeficiency virus 1. Put plainly: Antiviral activity against recombinant HIV1 NLRep-Rluc harbouring polymorphic NT infected in human MT-2 cells assessed as inhibition of virus growth in presence of fetal bovine serum by measuring luciferase activity after 5 days. Format: functional, organism-based. Particulars: Human immunodeficiency virus 1, NLRep, MT2, 120 h.

The test system of data set [12] is Human immunodeficiency virus 1. Briefly: Antiviral activity against recombinant HIV1 A128T-resitant mutant […] infected in human MT-2 cells assessed as inhibition of virus growth in presence of fetal bovine serum by measuring luciferase activity after 5 days. In kind it is functional, organism-based. The note with it: Human immunodeficiency virus 1, MT2, 120 h.

Molecules are shown by their SMILES.

With `CCc1cccc(CC)c1-c1cc(-c2ccc3c4c(ccnc24)CCO3)c(C(OC(C)(C)C)C(=O)O)c(C)n1` (racemic), the IC50 in [1] turned out to be 100 µM. In data set [2], the EC50 came out at 0.19 µM.
As for `Cc1nc(C)c([C@H](OC(C)(C)C)C(=O)O)c(N2CCC(C)(C)CC2)c1-c1ccc(CCCc2ccc(F)cc2)cc1`, the IC50 in [1] was determined as 0.0733 µM. Further, the EC50 in data set [2] came to 0.0226 µM. The CC50 at 96 h in data set [3] was at least 32 µM. In addition, the half-life at 0.5 µM in data set [4] and in data set [5] was over 2 h throughout.
As to `Cc1nc(C)c([C@H](OC(C)(C)C)C(=O)O)c(N2CCC(C)(C)CC2)c1-c1ccc(OCCc2ccc(F)cc2F)cc1`, the IC50 in [1] was found to be 0.0116 µM. Besides, the EC50 in [2] amounted to 0.0036 µM. The CC50 at 96 h in [3] was at least 33.5 µM. The half-life at 0.5 µM in data set [4] is over 2 h; in [5] it was 1.08 h. In addition, the clearance in [6] was 0.54 L/h/kg.
Turning to `Cc1nc(C)c([C@H](OC(C)(C)C)C(=O)O)c(N2CCC(C)(C)CC2)c1-c1ccc(OCCc2cc(F)c(F)cc2F)cc1`, the IC50 in data set [1] is 0.0181 µM. Further, in data set [2], the concentration giving a half-maximal response (EC50) amounted to 0.0033 µM. In addition, the CC50 at 96 h in data set [3] is at least 33.5 µM. In addition, the half-life at 0.5 µM in [4] and in data set [5] was over 2 h throughout. This compound displayed a clearance in [6] of 0.486 L/h/kg.
Regarding `Cc1noc(C)c1CCOc1ccc(-c2c(C)nc(C)c([C@H](OC(C)(C)C)C(=O)O)c2N2CCC(C)(C)CC2)cc1`, the IC50 in [1] came to 0.0114 µM. The EC50 in data set [2] is 0.0015 µM. Further, the CC50 at 96 h in data set [3] was at least 25 µM. Further, the results for the half-life at 0.5 µM in data set [4] and in [5] were 1.32 h and 0.467 h, respectively. In addition, the clearance in data set [6] was 3.53 L/h/kg.
`Cc1nc(C)c([C@H](OC(C)(C)C)C(=O)O)c(N2CCC(C)(C)CC2)c1-c1ccc(SCCc2ccc(F)cc2)cc1`: in [1], the IC50 was found to be 0.098 µM. In data set [2], the EC50 amounted to 0.0156 µM. Also, the CC50 at 96 h in data set [3] is at least 32 µM. The half-life at 0.5 µM in data set [4] and in data set [5] was over 2 h in each case.
Take `Cc1nc(C)c([C@H](OC(C)(C)C)C(=O)O)c(N2CCC(C)(C)CC2)c1-c1ccc(OCCc2cccnc2)cc1`: the IC50 in [1] is 0.0193 µM. Also, in data set [2], the EC50 is 0.0013 µM. For the same compound, in data set [3], the CC50 at 96 h is at least 25 µM. The half-life at 0.5 µM in [4] was found to be 0.783 h; in data set [5] it was 0.367 h.
In the case of `Cc1nc(C)c([C@H](OC(C)(C)C)C(=O)O)c(N2CCC(C)(C)CC2)c1-c1ccc(OCCc2ccc(Cl)cc2)cc1`, in data set [1], the half-maximal inhibitory concentration (IC50) came out at 0.0304 µM. Besides, in [2], the EC50 amounted to 0.012 µM. In addition, the CC50 at 96 h in data set [3] is at least 33.5 µM.
For the compound `Cc1cc(CCOc2ccc(-c3c(C)nc(C)c([C@H](OC(C)(C)C)C(=O)O)c3N3CCC(C)(C)CC3)cc2)ccc1F`, in data set [1], the IC50 was determined as 0.0211 µM. In data set [2], the EC50 is 0.0048 µM. The CC50 at 96 h in data set [3] was at least 33.5 µM. Moreover, the half-life at 0.5 µM in [4] and in [5] was over 2 h in each case. This compound also returned a clearance in data set [6] of 0.468 L/h/kg.
As for `Cc1ccc(CCOc2ccc(-c3c(C)nc(C)c([C@H](OC(C)(C)C)C(=O)O)c3N3CCC(C)(C)CC3)cc2)s1`, the IC50 in data set [1] was determined as 0.0492 µM. The EC50 in data set [2] was determined as 0.0044 µM. Moreover, the CC50 at 96 h in [3] was at least 25 µM. Also, the half-life at 0.5 µM in data set [4] and in [5] was over 2 h throughout.
For the compound `Cc1nc(C)c([C@H](OC(C)(C)C)C(=O)O)c(N2CCC(C)(C)CC2)c1-c1ccc(OCCc2cc(F)ccc2F)cc1`, the IC50 in data set [1] turned out to be 0.0147 µM. Further, the EC50 in [2] stood at 0.0028 µM. Also, the CC50 at 96 h in data set [3] is at least 33.5 µM. This compound also showed a clearance in [6] of 1.12 L/h/kg.
`COc1ccc(CCOc2ccc(-c3c(C)nc(C)c([C@H](OC(C)(C)C)C(=O)O)c3N3CCC(C)(C)CC3)cc2)cc1`: the IC50 in data set [1] was 0.0132 µM. Further, the EC50 in [2] was 0.0039 µM. Besides, the CC50 at 96 h in [3] was at least 33.5 µM. The half-life at 0.5 µM in data set [4] and in data set [5] was over 2 h in each case. Also, in [6], the clearance is 0.804 L/h/kg.
For the compound `Cc1ncsc1CCOc1ccc(-c2c(C)nc(C)c([C@H](OC(C)(C)C)C(=O)O)c2N2CCC(C)(C)CC2)cc1`, the IC50 in data set [1] was found to be 0.0127 µM. Moreover, the EC50 in data set [2] was determined as 0.0008 µM; in data set [7], 0.0007 µM; in data set [8], 0.001 µM; in data set [9], 0.0013 µM; in data set [10] it was 0.00075 µM; in data set [11], 0.001 µM. Besides, the EC50 in data set [12] is 0.107 µM. Also, the CC50 at 96 h in data set [3] is at least 25 µM. In addition, the half-life at 0.5 µM in data set [4] was over 2 h; in data set [5], 1.5 h. Also, the clearance in data set [6] was found to be 4.14 L/h/kg.
As for `Cc1nc(C)c([C@H](OC(C)(C)C)C(=O)O)c(N2CCC(C)(C)CC2)c1-c1ccc(Cc2ccccc2)cc1`, the IC50 in [1] worked out at 0.0134 µM. In addition, the EC50 in data set [2] came out at 0.0122 µM. The CC50 at 96 h in [3] is at least 20 µM.
With `Cc1nc(C)c([C@H](OC(C)(C)C)C(=O)O)c(N2CCC(C)(C)CC2)c1-c1ccc(OCc2ccccc2)cc1`, in data set [1], the IC50 stood at 0.0302 µM. In addition, in data set [2], the EC50 worked out at 0.0113 µM. Further, in data set [3], the CC50 at 96 h was at least 20 µM.
